Source: US9750728B2, “Method and pharmaceutical composition for inhibiting PI3K/AKT/mTOR signaling pathway” (TARGETED THERAPEUTICS, LLC, priority 2012, dated 2017)
“Also recorded” adds a separate entry of the source.

Columns and labels:
[1] = tested on: PI3K; assay: PI3K kinase assay in anti-p85 immunoprecipitates; format: cell-based; conditions: Panc-1, 24 hours
Protocol: PI3K kinase assay kit (Calbiochem, Bilerica, Mass., USA) was used to measure the IRS-1-associated or p85-associated PI3K kinase activity in cells. The indicated cells were treated with different conditions for 24 hours. The cells were rinsed three times with pre-cooled PBS, lysed in 500 μl of lysis buffer (150 mmol/L Nacl, 1% Triton-x-100, 50 mmol/1 Tris (pH8.0, 1 mmol/L PMSF, 1 μg/L aprotinin, 1 μg/Lleupeptin, 1 μg/L peptain). Cell lysates (500 μg, in triplicate) of were used for anti-IRS-1 or anti-p85 immunoprecipitation. The immunoprecipitates were resuspended in 200 μl assay buffer and mixed with the fluorescence-labeled PI3K substrate BODIPY-TMR-phosphatidylinositol (100 μM) and ATP (37° C.) for 1 hour. The fluorescence intensity was measured with a fluorometer (excitation wavelength of 540 nm, emission wavelength […]). The difference between fluorescence intensity between control immunoprecipitates (no lysates) and lysate immunoprecipitates was used to indicate PI3K kinase activity. IR-1 anti-rabbit antibody and rabbit anti-PI3K p85 antibody were purchased from Millipore Corporation (Billerica, Mass., USA). Panc-1 anti-p85 immunoprecipitates were used for PI3K kinase assay (FIG. 12) and immunoblot analysis (FIG. 12). Rapamycin treatment in control cells increased PI3K kinase activity (P<0.01).

[2] = tested on: Panc-1; assay: MTT cell viability assay; format: cell-based
Protocol: 1.1. ZPP and Y29794 induces cytotoxicity to cancer cells by MTT analysis of cell viability. Cells were placed in 96-well plates (3×10^3 cells/well) in octuplicate. The cells were then treated with vehicle or different doses of ZPP for 4 days. Cells were then loaded with 1.2 mM MTT (4,5-Dimethylthiazol-2-vn-2,5-diphenvltetrazolium bromide, a yellow tetrazole) in phenol red-free medium for 4 hours. The cells were then lysed in 10% SDS/0.01M HCL. MTT absorbance (570 nm spectrum) was measured by a microplate reader. The relative absorbance is normalized to the control (vehicle-treated) to indicate relative cell viability. ZPP was purchased from Biomol (Plymouth Meeting, Pa., USA). MTT was purchased from Sigma-Aldrich. Panc-1 and Capan-1 pancreatic cancer cell line, MCF7 and T47D breast cancer cell lines, A549 and HI 703 lung cancer Cell lines were purchased from American Type Culture Collection (ATCC, USA) preparation of pancreatic cancer cell line PK-9 have been disclosed, e.g., Kobari M et al, (1986) Tohoku J Exp Med. 150: 231-248; Etoh T et al, (2003) Clin Cancer Res 9; 1218; Arafat H. et al, (2011) Surgery 150 (2): 306-315. Cells were grown in Dulbecco's Modified. Eagle's (DMEM) medium (Invitrogen, Carlsbad, Calif.) containing 10% fetal bovine serum (FBS) (Hyclone, purchased from Thermo Fisher Scientific, Inc). […] […] Y29794 oxalate was purchased from Tocris Biosciences (Bristol, UK).

[3] = tested on: TD47; assay: MTT cell viability assay; format: cell-based; conditions: TD47, different doses, 4 days
Protocol: (§1) 1.1. ZPP and Y29794 induces cytotoxicity to cancer cells by MTT analysis of cell viability. Cells were placed in 96-well plates (3×10^3 cells/well) in octuplicate. The cells were then treated with vehicle or different doses of ZPP for 4 days. Cells were then loaded with 1.2 mM MTT (4,5-Dimethylthiazol-2-vn-2,5-diphenvltetrazolium bromide, a yellow tetrazole) in phenol red-free medium for 4 hours. The cells were then lysed in 10% SDS/0.01M HCL. MTT absorbance (570 nm spectrum) was measured by a microplate reader. The relative absorbance is normalized to the control (vehicle-treated) to indicate relative cell viability. ZPP was purchased from Biomol (Plymouth Meeting, Pa., USA). MTT was purchased from Sigma-Aldrich. Panc-1 and Capan-1 pancreatic cancer cell line, MCF7 and T47D breast cancer cell lines, A549 and HI 703 lung cancer Cell lines were purchased from American Type Culture Collection (ATCC, USA) preparation of pancreatic cancer cell line PK-9 have been disclosed, e.g., Kobari M et al, (1986) Tohoku J Exp Med. 150: 231-248; Etoh T et al, (2003) Clin Cancer Res 9; 1218; Arafat H. et al, (2011) Surgery 150 (2): 306-315. Cells were grown in Dulbecco's Modified. Eagle's (DMEM) medium (Invitrogen, Carlsbad, Calif.) containing 10% fetal bovine serum (FBS) (Hyclone, purchased from Thermo Fisher Scientific, Inc). […] In similar experiments, the cells were treated with different doses of Y29794 for 4 days and analyzed for MTT absorbance. Y29794 oxalate was purchased from Tocris Biosciences (Bristol, UK).

[4] = tested on: PK-9; assay: MTT cell viability assay; format: cell-based; conditions: PK-9, different doses, 4 days
Protocol: as §1

[5] = tested on: H1703; assay: MTT cell viability assay; format: cell-based; conditions: H1703, different doses, 4 days
Protocol: as §1

[6] = tested on: MCF7; assay: MTT cell viability assay; format: cell-based; conditions: MCF7, different doses, 4 days
Protocol: as §1

[7] = tested on: MDAMB231; assay: MTT cell viability assay; format: cell-based; conditions: MDAMB231, different doses, 4 days
Protocol: as §1

[8] = tested on: mTOR (S2448) phosphorylation; assay: Immunoblot analysis of mTOR phosphorylation; format: cell-based; conditions: Panc-1; rapamycin, or Y29794 1 μM (FIG. 19D)
Protocol: Mouse anti-PRCP antibody was purchased from Abcam (Cambridge, Mass., USA). Goat anti-PREP antibody was purchased from R&D Systems (Minneapolis, Minn., USA). Mouse anti-R-actin antibody antibodies was from Santa Cruz Biotechnology (Santa Cruz, Calif., USA). Panc-1 pancreatic cancer cells and MCF7 breast cancer cells were cultured to 80% confluence, cells were rinsed three times with pre-cooled PBS, 500 μl of lysis buffer (150 mmol/L Nacl, 1% Triton-x-100, 50 mmol/l TrispH8.0, 1 mmol/L PMSF, 1 ug/L aprotinin, 1 ug/L leupeptin, 1 ug/L peptain) was added to the cells. Cells were scraped and transferred to a centrifuge tube with a pipette. The lysates were spun in a microcentrifuge at maximal speed for 10 minutes at 4° C. to get rid of the insoluble fraction. Protein concentration was determined by Bradford assay. For immunoprecipitation: 2-5 ug protein-specific antibodies were added to 250-500 ug of lysates in a tube and incubated on an ordital shaker 4° C. for 2-4 hours with moderate shaking, then 20 ul Protein G beads (Santa Cruz Biotechnology (Santa Cruz, Calif., USA.) were added and the mixture was incubated with moderate shaking for another hour. After washing the beads in lysis buffer five times, the immunoprecipitates were boiled in 2× Laemmli sample buffer (50 mmoL/L Tris-HCL (pH8.0), 100 mmoL/L DTT, 2% SDS, 0.1% bromophenol blue, 10% glycerol) for five minutes. The proteins were separated by conventional SDS-polyacrylamide gel electrophoresis (SDS-PAGE) electrophoresis and transferred to Amersham Hybond-P PVDF membrane (GE Company, Pittsburgh, Pa., USA). For immunoblot, the membrane was blocked in 2% BSA in TBST buffer (Tris 1.21 g+NaCl 5.84 g+800 ml H2O adjusted to pH 8.0 with HCl) for one hour and then incubated with primary antibodies in TBST at room temperature (22-25° C.) for 2 hours. After washing three times with TBST, the membrane was incubated with HRP-conjugated secondary antibodies for 0.5 hours at room temperature. […]

[9] = tested on: Panc-1 tumor; assay: Xenotransplanted Panc-1 pancreatic tumor growth in SCID mice; format: in vivo, SCID mice (BALB/C)
Protocol: 4-6 week-old male SCID mice (BALB/C) were purchased from Charles River laboratories (Wilmington, Mass., USA). Pane-1 cells at about 80% confluence were trypsinized with 0.25% trypsin and 0.02% EDTA. The cell suspension was centrifuged after addition of 10% FBS. 10^6 cells were resuspended in 100 μl PBS buffer containing 10% Matrigel, and injected with a 1-cc syringe with a 27-30 sized needle into the right flank of nude mice under anesthesia. After tumor formation (mean volume 50-60 mm^3) the mice were randomly divided into four groups (6 mice per group): control group, rapamycin treatment group, Y29794 treatment group, and Y29794 plus rapamycin treatment group. Rapamycin and Y29794 were dissolved in Cremophor formulation (20% Cremophor EL, 30% propylene glycol, 50% ethanol). Rapamycin (2 mg/kg body weight) was given by intraperitoneal injection one dose per week. Y29794 (20 mg/kg body weight) was administered by gavage five doses a week. Weekly measurements of tumor size (length, width and depth) and calculation of the tumor volume (½ larger diameter×(smaller diameter)) were carried until the control tumors reached 1000 mm^3.

rapamycin-induced increase in PI3K kinase activity (p85-associated) ([1]; rapamycin with ZPP 200 μM or Y29794 0.5 μM): blocks; also recorded: inhibited
Compound: CC(C)c1ccc(C(=O)c2cccs2)c(SCCCCCCCCN(C)C)n1 [Y29794, [2-[8-(dimethylamino)octylsulfanyl]-6-propan-2-ylpyridin-3-yl]-thiophen-2-ylmethanone]
PI3K kinase activity (p85-associated) ([1]; ZPP 200 μM, Y29794 0.5 μM or rapamycin alone, vs vehicle): reduced; also recorded: significantly lower
MTT absorbance (relative cell viability) ([2]; Panc-1, different doses, 4 days): dose-dependent cytotoxicity
cell viability (MTT), combination ([2]; Panc-1, various concentration of Y29794 with 0.5 nM rapamycin, three days (FIG. 16A legend)): synergistic reduction
cell viability (MTT), combination ([2]; Panc-1, various concentration of rapamycin with 25 nM Y29794, three days (FIG. 16B legend)): synergistic reduction
MTT absorbance (relative cell viability) [3]: dose-dependent cytotoxicity
MTT absorbance (relative cell viability) [4]: dose-dependent cytotoxicity
MTT absorbance (relative cell viability) [5]: dose-dependent cytotoxicity
MTT absorbance (relative cell viability) [6]: dose-dependent cytotoxicity
MTT absorbance (relative cell viability) [7]: dose-dependent cytotoxicity
mTOR (S2448) phosphorylation [8]: without affecting
tumor growth (tumor volume), combination ([9]; Y29794 20 mg/kg by gavage five doses a week plus rapamycin 2 mg/kg intraperitoneal one dose per week): synergistic effect; also recorded: inhibited tumor growth (P<0.01) more than Y29794 alone
tumor growth (tumor volume) ([9]; Y29794 alone, 20 mg/kg by gavage five doses a week, vs control group, 20 mg/kg): significantly reduces; also recorded: significantly inhibited
